{"source": "paper PMC8348161", "about": "“Cardiolipin-Containing Lipid Membranes Attract the Bacterial Cell Division Protein DivIVA” (International Journal of Molecular Sciences, 2021)", "target": "T1, DivIVACd (Clostridioides difficile, UniProt Q182V3)", "T1 construct": "gene CD630_26190; full length, untagged (pET-26b) or His-SUMO tag cut by Ulp1 without extra residues; E. coli BL21(DE3)pLysS; forms large polymers", "T1 sequence (Q182V3 1-175)": "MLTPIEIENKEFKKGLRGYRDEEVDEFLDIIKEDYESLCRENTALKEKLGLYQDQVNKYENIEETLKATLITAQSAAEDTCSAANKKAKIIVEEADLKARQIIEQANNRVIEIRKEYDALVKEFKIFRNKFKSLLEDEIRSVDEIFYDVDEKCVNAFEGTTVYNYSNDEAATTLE", "assay": "QCM-D, protein titrated over supported lipid bilayer, Hill fit", "assay_type": "binding", "conditions": "5% CL in mixed bilayer (65% DOPC, 30% DOPG, 5% TOCL); protein concentration scale; Hill coefficient 1.0; pH 7.4, 250 mM KCl, 5 mM MgCl2, 23 °C", "data": [{"smiles": "CCCCCCCC/C=C\\CCCCCCCC(=O)OC[C@H](COP(=O)(O)OCC(O)COP(=O)(O)OC[C@@H](COC(=O)CCCCCCC/C=C\\CCCCCCCC)OC(=O)CCCCCCC/C=C\\CCCCCCCC)OC(=O)CCCCCCC/C=C\\CCCCCCCC", "note": "(stereo partly shown) [TOCL, 1,3-bis[1,2-dioleoyl-sn-glycero-3-phospho]-glycerol]", "values": [{"measurement": "Kd", "value": 1.3, "unit": "µM"}]}]}
